A word on the IC50: it is the concentration that inhibits the measured activity by half.

Experimental findings from patent US11542492B2 (Celgene CAR LLC, priority 2009, dated 2023) are described below.

Common to all, as to assay type: biochemical
One experiment addresses T1, p110β/p85α (PI3Kβ) (Homo sapiens, UniProt P42338).
T1 construct: purchased Millipore 14-603
As to the kind of experiment: HTRF assay, p110β/p85α. As to conditions: read-out: PI3Kβ HTRF IC50 Inhibition Designation. The procedure:
(§1) The mechanics of the assay platform are best described by the vendor (Millipore, Billerica, Mass.) on their website at the following URL: http://www.millipore.com/coa/tech1/74jt4z.
(§2) Briefly, Stop solution (Stop A, #33-007 and Stop B, #33-009; 3:1 ratio) and Detection Mix (DMC, #33-015 with DMA, #33-011 and DMB, #33-013; 18:1:1 ratio) were prepared as recommended by the manufacturer ˜2 hrs prior to use. […] Lipid kinase reactions were started with the addition of 5 μL of ATP solution, mixed for 15 sec on a rotary plate shaker and incubated for 15-30 minutes at 25° C. Next, reactions were stopped with a 5 μL addition of Stop solution followed by a 5 μL volume of Detection Mix. […] At the conclusion of each assay, the HTRF ratio from fluorescence emission values for each well was calculated and % Inhibition determined from averaged controls wells. % Inhibition values for each compound re then plotted against inhibitor concentration to estimate IC50 from log [Inhibitor] vs Response, Variable Slope model in GraphPad Prism from GraphPad Software (San Diego, Calif.).
For orientation: Time-resolved FRET reads energy transfer from a long-lived donor to a nearby acceptor.

A further experiment deals with T2, p120γ (PI3Kγ) (Homo sapiens, UniProt P48736).
T2 construct: purchased BPS Bioscience 40625
T2 sequence (P48736 whole entry): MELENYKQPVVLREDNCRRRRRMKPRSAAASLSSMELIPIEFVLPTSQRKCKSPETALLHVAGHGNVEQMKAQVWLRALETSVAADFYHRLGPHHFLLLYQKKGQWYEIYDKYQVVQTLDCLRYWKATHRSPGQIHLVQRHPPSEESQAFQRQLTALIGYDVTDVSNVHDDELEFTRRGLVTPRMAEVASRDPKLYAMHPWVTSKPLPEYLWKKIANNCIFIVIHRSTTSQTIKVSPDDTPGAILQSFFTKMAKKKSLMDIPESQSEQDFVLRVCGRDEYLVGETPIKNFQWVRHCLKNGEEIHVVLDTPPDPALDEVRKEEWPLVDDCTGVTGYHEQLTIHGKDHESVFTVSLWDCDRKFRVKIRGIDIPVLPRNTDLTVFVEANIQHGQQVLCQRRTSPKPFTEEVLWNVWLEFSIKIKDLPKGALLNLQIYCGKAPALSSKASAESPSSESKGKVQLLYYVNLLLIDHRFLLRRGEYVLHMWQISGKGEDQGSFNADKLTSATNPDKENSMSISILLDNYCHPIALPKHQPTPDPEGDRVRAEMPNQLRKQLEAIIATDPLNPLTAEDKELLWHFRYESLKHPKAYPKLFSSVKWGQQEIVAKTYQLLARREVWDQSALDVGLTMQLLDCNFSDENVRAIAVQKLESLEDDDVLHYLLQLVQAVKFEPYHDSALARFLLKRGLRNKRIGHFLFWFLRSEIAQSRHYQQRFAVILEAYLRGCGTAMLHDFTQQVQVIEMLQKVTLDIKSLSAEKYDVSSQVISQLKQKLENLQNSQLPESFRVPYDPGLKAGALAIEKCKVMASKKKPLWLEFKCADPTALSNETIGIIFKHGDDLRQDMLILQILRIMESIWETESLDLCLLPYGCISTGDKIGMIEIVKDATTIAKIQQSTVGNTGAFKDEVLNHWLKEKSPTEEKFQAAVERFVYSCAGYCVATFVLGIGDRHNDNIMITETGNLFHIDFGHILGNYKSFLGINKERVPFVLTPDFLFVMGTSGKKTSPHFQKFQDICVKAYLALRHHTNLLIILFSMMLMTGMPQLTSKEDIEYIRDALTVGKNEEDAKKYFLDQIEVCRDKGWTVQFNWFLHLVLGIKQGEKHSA
In words: HTRF assay, p120γ. Particulars: PI3Kγ; read-out: PI3Kγ HTRF IC50 Inhibition Designation. An excerpt: The protocol below describes an end-point, competition-binding HTRF assay used to measure inherent potency of test compounds against active p110α/p85α, p110β/p85α, p120γ enzymes. The mechanics of the assay platform are best described by the vendor (Millipore, Billerica, Mass.) on their website at the following URL: http://www.millipore.com/coa/tech1/74jt4z.
Briefly, Stop solution (Stop A, #33-007 and Stop B, #33-009; 3:1 ratio) and Detection Mix (DMC, #33-015 with DMA, #33-011 and DMB, #33-013; 18:1:1 ratio) were prepared as recommended by the manufacturer ˜2 hrs prior to use. Additionally, 1× reaction buffer (4× buffer stock #33-003), a 1.4× stock of enzyme from BPS Bioscience (San Diego, Ca) or Millipore (Billerica, Mass.) with di-C8-PIP2 lipid substrate (#33-005), and a 4×ATP solution (#A7699) Sigma/Aldrich (St. Louis, Mo.) were prepared in 1×reaction buffer. 15 μL of enzyme and lipid substrate mix were pre-incubated in a Corning (#3573) 384-well, black, non-treated microtiter plate (Corning, N.Y.) for 30 min at 25° C. with a 0.5 μL volume of 50% DMSO and serially diluted compounds prepared in 50%-75% DMSO. Lipid kinase reactions were started with the addition of 5 μL of ATP solution, mixed for 15 sec on a rotary plate shaker and incubated for 15-30 minutes at 25° C. Next, reactions were stopped with a 5 μL addition of Stop solution followed by a 5 μL volume of Detection Mix. Stopped reactions were equilibrated for 1 and 18 hrs at room temperature and then read in a Synergy4 plate reader from BioTek (Winooski, Vt.) at λex330-80/λem620-35 and λem665-7.5. At the conclusion of each assay, the HTRF ratio from fluorescence emission values for each well was calculated and % Inhibition determined from averaged controls wells. % Inhibition values for each compound re then plotted against inhibitor concentration to estimate IC50 from log [Inhibitor] vs Response, Variable Slope model in GraphPad Prism from GraphPad Software (San Diego, Calif.).
Reagents Used in Optimized Protocol: • [p120γ]=1-4 nM, [ATP]=50 μM, [di-C8-PIP2]=10 μM • (40625; BPS Bioscience)

The target of the next experiment is T3, p110α/p85α (PI3Kα) (Homo sapiens, UniProt P42336).
T3 construct: purchased BPS Bioscience or Millipore 40620 (BPS Bioscience) or 14-602 (Millipore)
T3 sequence (P42336 whole entry): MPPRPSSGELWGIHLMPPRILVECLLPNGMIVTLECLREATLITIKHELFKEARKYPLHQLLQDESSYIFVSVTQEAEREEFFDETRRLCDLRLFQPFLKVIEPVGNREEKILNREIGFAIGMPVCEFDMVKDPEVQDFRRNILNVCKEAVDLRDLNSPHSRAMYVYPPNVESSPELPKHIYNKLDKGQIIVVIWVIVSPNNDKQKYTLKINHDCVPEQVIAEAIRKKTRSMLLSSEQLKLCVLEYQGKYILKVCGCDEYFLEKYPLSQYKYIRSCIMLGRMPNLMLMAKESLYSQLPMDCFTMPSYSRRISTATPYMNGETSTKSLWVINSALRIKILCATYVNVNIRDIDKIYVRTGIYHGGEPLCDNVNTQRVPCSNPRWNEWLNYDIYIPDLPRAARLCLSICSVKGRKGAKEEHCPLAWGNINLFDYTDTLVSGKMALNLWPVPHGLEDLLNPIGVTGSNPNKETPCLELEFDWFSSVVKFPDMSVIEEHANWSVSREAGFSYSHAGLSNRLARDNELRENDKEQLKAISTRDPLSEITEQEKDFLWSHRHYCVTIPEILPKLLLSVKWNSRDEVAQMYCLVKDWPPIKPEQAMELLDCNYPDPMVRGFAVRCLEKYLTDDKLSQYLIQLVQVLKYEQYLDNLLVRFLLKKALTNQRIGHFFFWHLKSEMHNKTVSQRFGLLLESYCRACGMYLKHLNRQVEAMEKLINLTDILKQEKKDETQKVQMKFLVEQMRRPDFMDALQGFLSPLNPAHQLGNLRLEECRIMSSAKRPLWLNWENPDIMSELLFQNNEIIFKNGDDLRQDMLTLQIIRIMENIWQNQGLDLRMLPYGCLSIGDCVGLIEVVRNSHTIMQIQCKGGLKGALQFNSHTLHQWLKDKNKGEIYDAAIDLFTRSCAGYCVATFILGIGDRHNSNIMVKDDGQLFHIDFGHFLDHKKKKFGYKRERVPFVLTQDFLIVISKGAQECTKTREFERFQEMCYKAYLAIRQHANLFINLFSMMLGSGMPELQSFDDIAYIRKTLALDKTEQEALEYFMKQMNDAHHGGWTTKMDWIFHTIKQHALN
T3 sequence (P27986 whole entry partner): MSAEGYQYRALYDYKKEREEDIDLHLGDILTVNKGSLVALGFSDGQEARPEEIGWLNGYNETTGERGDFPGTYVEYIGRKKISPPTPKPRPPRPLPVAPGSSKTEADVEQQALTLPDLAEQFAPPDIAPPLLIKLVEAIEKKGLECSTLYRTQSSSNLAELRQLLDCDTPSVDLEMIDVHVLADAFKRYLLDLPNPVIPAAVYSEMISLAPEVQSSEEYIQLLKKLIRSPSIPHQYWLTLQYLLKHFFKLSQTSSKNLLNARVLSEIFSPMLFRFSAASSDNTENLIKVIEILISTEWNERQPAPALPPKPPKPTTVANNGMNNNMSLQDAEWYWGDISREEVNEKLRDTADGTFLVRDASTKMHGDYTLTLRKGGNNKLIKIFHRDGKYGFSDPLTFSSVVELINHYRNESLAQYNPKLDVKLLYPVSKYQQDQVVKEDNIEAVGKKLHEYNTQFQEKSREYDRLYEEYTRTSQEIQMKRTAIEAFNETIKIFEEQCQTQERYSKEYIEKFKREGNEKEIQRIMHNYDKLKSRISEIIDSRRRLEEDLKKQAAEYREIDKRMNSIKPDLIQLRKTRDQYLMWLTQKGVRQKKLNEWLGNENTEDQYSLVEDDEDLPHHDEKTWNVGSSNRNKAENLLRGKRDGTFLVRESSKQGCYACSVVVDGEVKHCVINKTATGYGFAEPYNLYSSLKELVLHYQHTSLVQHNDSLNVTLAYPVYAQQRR
In words: HTRF assay, p110α/p85α. As to conditions: read-out: PI3Kα-HTRF-IC50 nM Inhibition Designation. On the procedure: HTRF Assay Protocol for Potency Assessment Against the Active Form of p110α/p85α:
as §1, §2

T1 sequence (P42338 whole entry): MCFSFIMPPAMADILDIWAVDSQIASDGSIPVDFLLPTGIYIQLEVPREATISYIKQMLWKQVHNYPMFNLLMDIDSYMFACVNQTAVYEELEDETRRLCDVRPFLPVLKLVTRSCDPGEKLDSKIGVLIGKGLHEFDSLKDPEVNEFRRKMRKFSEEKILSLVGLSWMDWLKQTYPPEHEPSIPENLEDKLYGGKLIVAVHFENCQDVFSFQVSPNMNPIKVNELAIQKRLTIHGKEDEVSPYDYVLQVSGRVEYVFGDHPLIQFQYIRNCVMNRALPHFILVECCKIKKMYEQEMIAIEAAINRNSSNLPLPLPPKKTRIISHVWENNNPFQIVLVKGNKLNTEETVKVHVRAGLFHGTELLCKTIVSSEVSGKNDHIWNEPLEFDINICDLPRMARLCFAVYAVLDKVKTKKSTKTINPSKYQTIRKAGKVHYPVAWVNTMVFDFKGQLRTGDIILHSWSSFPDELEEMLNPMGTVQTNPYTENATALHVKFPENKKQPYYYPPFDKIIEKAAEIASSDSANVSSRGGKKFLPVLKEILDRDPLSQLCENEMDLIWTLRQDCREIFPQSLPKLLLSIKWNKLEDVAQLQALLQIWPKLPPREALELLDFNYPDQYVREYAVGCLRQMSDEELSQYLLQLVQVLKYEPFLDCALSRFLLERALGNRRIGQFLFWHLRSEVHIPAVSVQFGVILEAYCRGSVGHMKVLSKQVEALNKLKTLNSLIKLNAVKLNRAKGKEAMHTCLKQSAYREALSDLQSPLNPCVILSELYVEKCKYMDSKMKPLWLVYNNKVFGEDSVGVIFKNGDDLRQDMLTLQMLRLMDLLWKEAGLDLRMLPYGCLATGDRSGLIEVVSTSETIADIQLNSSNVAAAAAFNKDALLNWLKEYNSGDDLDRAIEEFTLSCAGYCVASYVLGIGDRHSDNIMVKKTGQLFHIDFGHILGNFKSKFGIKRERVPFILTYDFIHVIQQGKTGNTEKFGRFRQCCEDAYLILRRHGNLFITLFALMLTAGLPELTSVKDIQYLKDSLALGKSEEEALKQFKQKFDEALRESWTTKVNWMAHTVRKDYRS
T1 sequence (P27986 whole entry partner): as the sequence (P27986 whole entry partner) above

Consider `Nc1ncc(-c2nc(N3CCOCC3)c3sc(CN4CCN(C(=O)C5CCSC5=O)CC4)cc3n2)cn1` (stereo not drawn) [XXII-30, 3-(4-((2-(2-aminopyrimidin-5-yl)-4-morpholinothieno[3,2-d]pyrimidin-6-yl)methyl)piperazine-1-carbonyl)dihydrothiophen-2(3H)-one], for which the figures for the IC50 on p110β/p85α (PI3Kβ) and at p120γ (PI3Kγ) were 0.1 to 1 µM and 0.01 to 0.1 µM, respectively.

As for `CC(C)Oc1c(N2CCN(Cc3cc4nc(-c5cnc(N)nc5)nc(N5CCOCC5)c4s3)CC2)c(=O)c1=O` [XXII-26, 3-(4-((2-(2-aminopyrimidin-5-yl)-4-morpholinothieno[3,2-d]pyrimidin-6-yl)methyl)piperazin-1-yl)-4-isopropoxycyclobut-3-ene-1,2-dione], the IC50 on p110β/p85α (PI3Kβ) and on p120γ (PI3Kγ) was 0.1 to 1 µM in each case.

In the case of `COc1ncc(-c2ccc3nccc(-c4ccc(C(=O)N5C[C@H]6C[C@@H]5C(=O)O6)cc4)c3c2)cc1NS(=O)(=O)c1ccc(F)cc1F` [XXV-15, 2,4-difluoro-N-(2-methoxy-5-(4-(4-((1R,4R)-3-oxo-2-oxa-5-azabicyclo[2.2.1]heptane-5-carbonyl)phenyl)quinolin-6-yl)pyridin-3-yl)benzenesulfonamide], on p110β/p85α (PI3Kβ), the IC50 is under 0.01 µM.

`COc1ncc(-c2ccc3nccc(-c4ccc(C(=O)N5C[C@@H]6C[C@H]5C(=O)O6)cc4)c3c2)cc1NS(=O)(=O)c1ccc(F)cc1F` [XXV-13, 2,4-difluoro-N-(2-methoxy-5-(4-(4-((1S,4S)-3-oxo-2-oxa-5-azabicyclo[2.2.1]heptane-5-carbonyl)phenyl)quinolin-6-yl)pyridin-3-yl)benzenesulfonamide]: on p110β/p85α (PI3Kβ), the IC50 was under 0.01 µM.

In the case of `COc1c(OCCCC(=O)N2C[C@@H]3C[C@H]2C(=O)O3)ccc2c1N=C(NC(=O)c1cccnc1)N1CCN=C21` [XXVII-14, N-(7-methoxy-8-(4-oxo-4-((1S,4S)-3-oxo-2-oxa-5-azabicyclo[2.2.1]heptan-5-yl)butoxy)-2,3-dihydroimidazo[1,2-c]quinazolin-5-yl)nicotinamide], the IC50 at p110β/p85α (PI3Kβ) lay in the range of 0.1 to 1 µM.

As to `CC(C)Oc1c(NCC(=O)N2CCN(Cc3cc4nc(-c5cnc(N)nc5)nc(N5CCOCC5)c4s3)CC2)c(=O)c1=O` [XXII-27, 3-(2-(4-((2-(2-aminopyrimidin-5-yl)-4-morpholinothieno[3,2-d]pyrimidin-6-yl)methyl)piperazin-1-yl)-2-oxoethylamino)-4-isopropoxycyclobut-3-ene-1,2-dione], the IC50 at p110β/p85α (PI3Kβ) and on p120γ (PI3Kγ) was 0.1 to 1 µM throughout.

As for `COc1ccc(NC(=O)N2C[C@@H]3C[C@H]2C(=O)O3)cc1-n1c(CSc2ncnc3[nH]cnc23)nc2cccc(Cl)c2c1=O` [XXXVII-4, (1S,4S)-N-(3-(2-((9H-purin-6-ylthio)methyl)-5-chloro-4-oxoquinazolin-3(4H)-yl)-4-methoxyphenyl)-3-oxo-2-oxa-5-azabicyclo[2.2.1]heptane-5-carboxamide], on p110β/p85α (PI3Kβ), the IC50 lay within 0.1 to 1 µM.

As to `COC(=O)N1C(=O)CC[C@H]1C(=O)N1CCN(Cc2cc3nc(-c4cnc(N)nc4)nc(N4CCOCC4)c3s2)CC1` [XXII-29, (S)-methyl 2-(4-((2-(2-aminopyrimidin-5-yl)-4-morpholinothieno[3,2-d]pyrimidin-6-yl)methyl)piperazine-1-carbonyl)-5-oxopyrrolidine-1-carboxylate], the IC50 on p110β/p85α (PI3Kβ) and at p120γ (PI3Kγ) was 0.1 to 1 µM in each case.

For `CN(Cc1cc2nc(-c3cccc(O)c3)nc(N3CCOCC3)c2s1)C(=O)CCC(=O)N1CCC1=O` [XXII-24, N-((2-(3-hydroxyphenyl)-4-morpholinothieno[3,2-d]pyrimidin-6-yl)methyl)-N-methyl-4-oxo-4-(2-oxoazetidin-1-yl)butanamide], at p110β/p85α (PI3Kβ), the IC50 lay in the range of 0.1 to 1 µM.

Consider `C=CC(=O)Nc1ccc(-c2ccnc3ccc(-c4cnc(OC)c(NS(=O)(=O)c5ccc(F)cc5F)c4)cc23)cc1` [XXV-14, N-(4-(6-(5-(2,4-difluorophenylsulfonamido)-6-methoxypyridin-3-yl)quinolin-4-yl)phenyl) acrylamide], for which the IC50 at p110β/p85α (PI3Kβ) is under 0.01 µM.

Consider `C/C=C/S(=O)(=O)N1CCN(Cc2cc3nc(-c4cnc(N)nc4)nc(N4CCOCC4)c3s2)CC1` [XXII-25, (E)-5-(4-morpholino-6-((4-(prop-1-enylsulfonyl)piperazin-1-yl)methyl)thieno[3,2-d]pyrimidin-2-yl)pyrimidin-2-amine], for which the results for the IC50 on p110β/p85α (PI3Kβ) and on p120γ (PI3Kγ) were 0.1 to 1 µM and 0.01 to 0.1 µM, respectively.

For `Nc1ncc(-c2nc(N3CCOCC3)c3sc(CN4CCN(C(=O)C5CCC(=O)S5)CC4)cc3n2)cn1` (stereo not drawn) [XXII-32, 5-(4-((2-(2-aminopyrimidin-5-yl)-4-morpholinothieno[3,2-d]pyrimidin-6-yl)methyl)piperazine-1-carbonyl)dihydrothiophen-2(3H)-one], the IC50 at p110β/p85α (PI3Kβ) and on p120γ (PI3Kγ) was 0.1 to 1 µM each time.

Regarding `CC1(C)Cc2nc(N3CCOc4ccc(-c5ccc(C(=O)N6C[C@H]7C[C@@H]6C(=O)O7)cc5)cc43)sc2C(=O)N1` [XXIII-7], the values for the IC50 on p110α/p85α (PI3Kα) and at p120γ (PI3Kγ) were 1000 to 10000 nM and 1 to 10 µM, respectively.

For the compound `COc1ccc(NC(=O)[C@@H]2CCC(=O)O2)cc1-n1c(CSc2ncnc3[nH]cnc23)nc2cccc(Cl)c2c1=O` [XXXVII-3, (S)-N-(3-(2-((9H-purin-6-ylthio)methyl)-5-chloro-4-oxoquinazolin-3(4H)-yl)-4-methoxyphenyl)-5-oxotetrahydrofuran-2-carboxamide], the IC50 at p110β/p85α (PI3Kβ) lay within 0.1 to 1 µM.

For `COc1ccc(C(=O)N2C[C@@H]3C[C@H]2C(=O)O3)cc1-n1c(CSc2ncnc3[nH]cnc23)nc2cccc(Cl)c2c1=O` [XXXVII-1, (1S,4S)-5-(3-(2-((9H-purin-6-ylthio)methyl)-5-chloro-4-oxoquinazolin-3(4H)-yl)-4-methoxybenzoyl)-2-oxa-5-azabicyclo[2.2.1]heptan-3-one], the IC50 on p110β/p85α (PI3Kβ) was in the range of 0.1 to 1 µM.

For the compound `COc1ccc(NC(=O)[C@H]2CCC(=O)O2)cc1-n1c(CSc2ncnc3[nH]cnc23)nc2cccc(Cl)c2c1=O` [XXXVII-2, (R)-N-(3-(2-((9H-purin-6-ylthio)methyl)-5-chloro-4-oxoquinazolin-3(4H)-yl)-4-methoxyphenyl)-5-oxotetrahydrofuran-2-carboxamide], the IC50 at p110β/p85α (PI3Kβ) was 0.1 to 1 µM.

Turning to `CC1(C)Cc2nc(N3CCOc4ccc(C(=O)N5C[C@@H]6C[C@H]5C(=O)O6)cc43)sc2C(=O)N1` [XXIII-4, (1S,4S)-5-(4-(6,6-dimethyl-4-oxo-4,5,6,7-tetrahydrothiazolo[5,4-c]pyridin-2-yl)-3,4-dihydro-2H-benzo[b][1,4]oxazine-6-carbonyl)-2-oxa-5-azabicyclo[2.2.1]heptan-3-one], the results for the IC50 on p110α/p85α (PI3Kα) and on p120γ (PI3Kγ) were 100 to 1000 nM and 0.1 to 1 µM, respectively.

`O=C1CC[C@@H](C(=O)N2CCN(c3ccnc4ccc(/C=C5\SC(Nc6c(Cl)cccc6Cl)=NC5=O)cc34)CC2)O1` [XXIV-2]: the IC50 at p110α/p85α (PI3Kα) fell in the range of 100 to 1000 nM; at p120γ (PI3Kγ) it was 0.1 to 1 µM.

As to `O=C1CC[C@@H](C(=O)N2CC=C(c3cc4nc(-c5cccc(O)c5)nc(N5CCOCC5)c4s3)CC2)O1` [XXII-1], the IC50 is 10 to 100 nM at p110α/p85α (PI3Kα) and 0.1 to 1 µM on p120γ (PI3Kγ).

With `COc1c(OCCCC(=O)N2C[C@H]3C[C@@H]2C(=O)O3)ccc2c1N=C(NC(=O)c1cccnc1)N1CCN=C21` [XXVII-13, N-(7-methoxy-8-(4-oxo-4-((1R,4R)-3-oxo-2-oxa-5-azabicyclo[2.2.1]heptan-5-yl)butoxy)-2,3-dihydroimidazo[1,2-c]quinazolin-5-yl)nicotinamide], the half-inhibitory concentration (IC50) at p110β/p85α (PI3Kβ) lay within 0.1 to 1 µM.
